{"source": "patent US20230320956A1", "about": "“DIARYLALKANE COMPOUNDS AND COMPOSITIONS FOR USE WITH SKIN AGING AND METHODS OF PRODUCTION THEREOF” (Unigen, Inc., priority 2022, published 2023)", "key": {"[1]": {"tested_on": "skin blotchiness/age spots, Caucasian subjects", "assay": "Self-assessment of skin blotchiness/age spots, Caucasian subjects", "format": "in vivo, human", "settings": "Week 8", "procedure": "Skin Blotchiness/Age Spots (Caucasian subjects): In order to determine any changes in skin blotchiness/age spots, chroma was analyzed by Visia CR®. The degree to which a color is free from being mixed with other colors is a good indication of its chromacity. An increase in the chroma score represented an improvement in skin blotchiness/age spots. A decrease represented a worsening. At each visit, Caucasian subjects rated their skin blotchiness/age spots according to the following scale: 0—No skin blotchiness or age spots visible, 1-3—Slight areas of skin blotchiness or age spots visible, 4-6—Moderate areas of skin blotchiness or age spots visible, 7-9—Severe areas of skin blotchiness or age spots visible. Additionally, at the final visit, subjects completed a questionnaire. There were no significant changes to skin blotchiness/age spots as assessed by the Visia CR® analysis at any of the clinic visits, although the Mean Score for skin blotchiness/age spots trended toward an increase at all 2, 4, and 8 weeks after starting dimethoxytolyl propylresorcinol use compared to Baseline, indicating an improvement in skin blotchiness/age spots (Table 27)."}, "[2]": {"tested_on": "skin brightness/luminance, Asian subjects", "assay": "Self-assessment of skin brightness/luminance, Asian subjects", "format": "in vivo, human", "settings": "Week 8", "procedure": "Included subjects were: • 1. Female subjects between the ages of 35-66 (inclusive) in general good health • 2. Asian subjects who had skin brightness/luminance score of “5” (moderately dull/sallow appearance) or greater on the face (for qualification only) as assessed by a trained technician and whose brightness/luminance were evaluated according to the following scale: 0—No dullness/sallowness visible, 1-3—Slightly dull/sallow appearance, 4-6—Moderately dull/sallow appearance, 7-9—Severely dull/sallow appearance. • 3. […] Individuals who could read, understand, and sign the Informed Consent form. • 5. […] At all visits, a trained technician evaluated the face of each subject for irritation. […] Results: Skin brightness/luminance (Asian subjects): In order to determine any changes in skin brightness/luminance, skin brightness (luminosity) was analyzed by Visia CR®. Facial luminance was a single number calculated based on the uniformity of the lightening of the image. […] There were no significant changes to brightness/luminance as assessed by the Visia CR® analysis at any of the clinic visits, although the Mean Score for skin brightness/luminance trended toward an increase at 4 and 8 weeks after starting dimethoxytolyl propylresorcinol use compared to Baseline (Table 24), indicating an improvement in skin brightness/luminance."}}, "data": [{"molecule": "COc1ccc(CCCc2ccc(O)cc2O)c(OC)c1C", "note": "[dimethoxytolyl propylresorcinol, 1-(3-methyl-2,4-dimethoxyphenyl)-3-(2′,4′-dihydroxyphenyl)-propane]", "values": [{"measurement": "Self-Assessment Skin Blotchiness/Age Spots % Improvement from Baseline", "setting": "[1]", "value": 37, "unit": "%"}, {"measurement": "Self-Assessment Skin Brightness/Luminance % Improvement from Baseline", "setting": "[2]", "value": 13, "unit": "%"}]}]}
